Laboratory results from PubChem BioAssay AID1963420 (Molecular Pharmacology Branch, DTP, NCI, 2024).
Blank lines part the entries; values can stand above or below the molecule they belong to.

Tested on: 494315-158-R-J1-PDC complex spheroid growth, percent test/control
Experiment: Anticancer human tumor 494315-158-R-J1-PDC patient-derived soft tissue sarcoma cell line growth inhibition [Asc]
Conditions: for IC50: curve of first compound; for viability, T/C: stronger effect = lower value
Protocol: Multicellular complex tumor spheroid response to apoptosis pathway targeting inhibitors Alrizomadlin, Pelcitoclax, and Dasminapant in combination with a variety of drugs and investigational agents in selected tumor cell lines
The MDM2 inhibitor alrizomadlin, the Bcl-2/Bcl-xL inhibitor pelcitoclax, and the IAPs inhibitor dasminapant were evaluated both individually and in combination with standard of care and investigational anticancer small molecules within a complex spheroid model of solid tumors. . Complex spheroids include a stromal component modeled by human endothelial cells (HUVEC) and fibroblasts modeled by human mesenchymal stem cells (MSCs). The concentration ranges selected for each drug and investigational agent were based upon clinically achievable concentrations if the clinical Cmax of the agent was known.
Compounds. The drugs and investigational agents: alrizomadlin (APG-115; NSC831270), pelcitoclax (APG-1252; NSC835773), dasminapant (APG-1387;NSC834197), TAK-243 (NSC785004), copanlisib (NSC809693), olaparib (NSC753686), talazoparib (NSC767125), cobimetinib (NSC 768068), eltanexor (KPT-8602, NSC 794443), abemaciclib (NSC 768073), sotorasib (NSC818433), adagrasib (NSC 831453), MRTX-1133 (NSC 836407), Iadademestat (ORY1001, NSC 806812), and RMC-4630 (NSC839698), were obtained from the NCI Developmental Therapeutics Program Chemical Repository. The FDA-approved anticancer drug set is available from the Developmental Therapeutics Program at https://dtp.cancer.gov/organization/dscb/obtaining/available plates.htm. […] The stock solutions were prepared in dimethyl sulfoxide (DMSO, Sigma-Aldrich, St. Louis, MO, cat. D2650) at 800-fold the tested concentration and stored at -70 degrees C prior to their use. All drugs and investigational agents were tested over a range starting from a high concentration at or near the clinical Cmax and decreasing in half-log increments. If the clinical Cmax for an agent had not been determined, the highest concentration tested was 10 microM.
The patient-derived cancer (PDC) cell lines include five colon adenocarcinomas: 186277-243-T-J2-PDC, 616215-338-R-J1-PDC, 439559-082-T-J2-PDC, 463943-066-T-J2-PDC, and 519858-162-T-J1-PDC; three pancreatic carcinomas: 323965-272-R-J2-PDC, 521955-158-R6-J3-PDC, and 521955-158-R2-J5-PDC; two uterine sarcomas: 327498-152-R-J2-PDC and 993429-296-R-J1-PDC; two rhabdomyosarcomas: 755483-174-R-J1-PDC and 772245-204-R-J1-PDC; two soft tissue sarcomas: 126254-015-R-J1-PDC and 494315-158-R-J1-PDC; two malignant fibrous histiocytomas: 317291-083-R-J1-PDC and 596521-263-R-J1-PDC; two breast carcinomas: 171881-019-R-J1-PDC and 885512-296-R-J2-PDC; and one ovarian carcinoma: 6556581-035-R-J-PDC were obtained from the NCI PDMR, (https://pdmr.cancer.gov). The established cell lines HSSY-2 synovial sarcoma (RRID:CVCL 8719), SYO-1 synovial sarcoma (RRID:CVCL_7146), MPNST malignant peripheral neural sheath tumor were obtained from the Sloan Kettering Institute. The following established cell lines were purchased from the American Type Culture Collection (ATCC, Manassas, VA), Sor the received from the NCI repository:, PANC-1 pancreatic carcinoma (CRL-1469, RRID:CVCL_0480), OVCAR-5 ovarian carcinoma (RRID:CVCL_1628), OVCAR-8 ovarian carcinoma (RRID:CVCL_1629), , MCF-7 breast carcinoma (CRL-12584, RRID:CVCL_0031), MDA-MB-231 breast carcinoma (CRL-12532, RRID:CVCL_0062), NCI-H1876 small cell lung carcinoma (CRL-5902, RRID:CVCL_1503), NCI-H510A small cell lung carcinoma (HTB-184, RRID:CVCL_1565), NCI-H1417 (CRL-5869, RRID:CVCL_1469), and NCI-H196 small cell lung carcinoma (CRL-5823, RRID:CVCL_1509). Dr. Peter Houghton (Greehey Children's Cancer Research Institute, University of Texas Health Science Center, San Antonio, TX) provided Rh-18 rhabdomyosarcoma (RRID:CVCL_1659). Pooled donor human umbilical vein endothelial cells (HUVEC, Lonza, cat. CC-2519) and human mesenchymal stem cells (hMSC, Lonza, cat. PT-2501) were purchased from Lonza (Walkersville, MD).
Cell Culture. […]
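Further: compound exposure lasted seven days after spheroids formed for three days.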

IC50 (second compound 0.03 µM): 42.3 nM | IC50 (second compound 0.0949 µM): 38.1 nM | IC50 (second compound 0.3 µM): 41.1 nM | IC50 (second compound 0.949 µM): 83.4 nM | IC50 (second compound 3 µM): 36.7 nM
SMILES: CNC(C)C(=O)NC1CN(S(=O)(=O)c2cccc(S(=O)(=O)N3CCC4CCC(C(=O)NC(c5ccccc5)c5ccccc5)N4C(=O)C(NC(=O)C(C)NC)C3)c2)CCC2CCC(C(=O)NC(c3ccccc3)c3ccccc3)N2C1=O (stereo not given) + CCN1C(C(=O)NC23CCC(C(=O)O)(CC2)CC3)C(c2cccc(Cl)c2F)C2(C(=O)Nc3cc(Cl)ccc32)C12CCCCC2
viability, T/C (second compound 0.03 µM, first compound 0.00316 µM): 87.4% | viability, T/C (second compound 0.03 µM, first compound 0.01 µM): 65.2% | viability, T/C (second compound 0.03 µM, first compound 0.0316 µM): 54% | viability, T/C (second compound 0.03 µM, first compound 0.1 µM): 39.5% | viability, T/C (second compound 0.03 µM, first compound 0.316 µM): 43.4% | viability, T/C (second compound 0.03 µM, first compound 1 µM): 31.9% | viability, T/C (second compound 0.0949 µM, first compound 0.00316 µM): 66.8% | viability, T/C (second compound 0.0949 µM, first compound 0.01 µM): 72.6% | viability, T/C (second compound 0.0949 µM, first compound 0.0316 µM): 45.8% | viability, T/C (second compound 0.0949 µM, first compound 0.1 µM): 42% | viability, T/C (second compound 0.0949 µM, first compound 0.316 µM): 31.1% | viability, T/C (second compound 0.0949 µM, first compound 1 µM): 26.3% | viability, T/C (second compound 0.3 µM, first compound 0.00316 µM): 70.9% | viability, T/C (second compound 0.3 µM, first compound 0.01 µM): 63.6% | viability, T/C (second compound 0.3 µM, first compound 0.0316 µM): 51.9% | viability, T/C (second compound 0.3 µM, first compound 0.1 µM): 43.9% | viability, T/C (second compound 0.3 µM, first compound 0.316 µM): 36.7% | viability, T/C (second compound 0.3 µM, first compound 1 µM): 38.5% | viability, T/C (second compound 0.949 µM, first compound 0.00316 µM): 71% | viability, T/C (second compound 0.949 µM, first compound 0.01 µM): 62.3% | viability, T/C (second compound 0.949 µM, first compound 0.0316 µM): 60.6% | viability, T/C (second compound 0.949 µM, first compound 0.1 µM): 49.2% | viability, T/C (second compound 0.949 µM, first compound 0.316 µM): 36.7% | viability, T/C (second compound 0.949 µM, first compound 1 µM): 34.4% | viability, T/C (second compound 3 µM, first compound 0.00316 µM): 67.6% | viability, T/C (second compound 3 µM, first compound 0.01 µM): 61.7% | viability, T/C (second compound 3 µM, first compound 0.0316 µM): 51.2% | viability, T/C (second compound 3 µM, first compound 0.1 µM): 41.1% | viability, T/C (second compound 3 µM, first compound 0.316 µM): 28.4% | viability, T/C (second compound 3 µM, first compound 1 µM): 31.4%

IC50 (second compound 0.1 µM): 558 nM | IC50 (second compound 0.316 µM): 260 nM | IC50 (second compound 1 µM): 107 nM | IC50 (second compound 3.16 µM): < 9.49 nM | IC50 (second compound 10 µM): 194 nM
SMILES: Cc1nc(N2CCC3(CC2)COC(C)C3N)c(CO)nc1Sc1ccnc(N)c1Cl (stereo not given) + Cc1c(S(C)(=O)=O)c(-c2cc(F)cc(N3CCN(c4ccc(NS(=O)(=O)c5ccc(NC(CCN6CCC(C(=O)OCCCP(=O)(O)O)CC6)CSc6ccccc6)c(S(=O)(=O)C(F)(F)F)c5)cc4)CC3)c2)c(-c2ccc(Cl)cc2)n1C(C)C
viability, T/C (second compound 0.1 µM, first compound 0.00949 µM): 71.1% | viability, T/C (second compound 0.1 µM, first compound 0.03 µM): 80.7% | viability, T/C (second compound 0.1 µM, first compound 0.0949 µM): 69.1% | viability, T/C (second compound 0.1 µM, first compound 0.3 µM): 61.6% | viability, T/C (second compound 0.1 µM, first compound 0.949 µM): 40.5% | viability, T/C (second compound 0.1 µM, first compound 3 µM): 23.5% | viability, T/C (second compound 0.316 µM, first compound 0.00949 µM): 68.3% | viability, T/C (second compound 0.316 µM, first compound 0.03 µM): 70% | viability, T/C (second compound 0.316 µM, first compound 0.0949 µM): 51.8% | viability, T/C (second compound 0.316 µM, first compound 0.3 µM): 55.2% | viability, T/C (second compound 0.316 µM, first compound 0.949 µM): 30.5% | viability, T/C (second compound 0.316 µM, first compound 3 µM): 17.1% | viability, T/C (second compound 1 µM, first compound 0.00949 µM): 71.4% | viability, T/C (second compound 1 µM, first compound 0.03 µM): 71% | viability, T/C (second compound 1 µM, first compound 0.0949 µM): 49.6% | viability, T/C (second compound 1 µM, first compound 0.3 µM): 34.6% | viability, T/C (second compound 1 µM, first compound 0.949 µM): 20.7% | viability, T/C (second compound 1 µM, first compound 3 µM): 21% | viability, T/C (second compound 3.16 µM, first compound 0.00949 µM): 48.8% | viability, T/C (second compound 3.16 µM, first compound 0.03 µM): 41.2% | viability, T/C (second compound 3.16 µM, first compound 0.0949 µM): 43.6% | viability, T/C (second compound 3.16 µM, first compound 0.3 µM): 26.4% | viability, T/C (second compound 3.16 µM, first compound 0.949 µM): 22.6% | viability, T/C (second compound 3.16 µM, first compound 3 µM): 10.3% | viability, T/C (second compound 10 µM, first compound 0.00949 µM): 76.8% | viability, T/C (second compound 10 µM, first compound 0.03 µM): 69.6% | viability, T/C (second compound 10 µM, first compound 0.0949 µM): 67.6% | viability, T/C (second compound 10 µM, first compound 0.3 µM): 38.5% | viability, T/C (second compound 10 µM, first compound 0.949 µM): 22.1% | viability, T/C (second compound 10 µM, first compound 3 µM): 8.76%
